Entries after “also recorded” stand apart in the source; their conditions may differ.
Legend:
Assay type in all cases: cell-based
[1] = molecular target: T1, caspase-8 (Homo sapiens, UniProt Q14790); test: Western blot of procaspase-8 cleavage in lysates of stimulated human T-lymphocytes; conditions: anti-CD3 antibody and crosslinked sFasL, 6 hours, IETD-fmk 50 μM; FIG. 6
T1 construct: procaspase-8, 55 kDa fraction, or proteolytically cleaved, active caspase-8, 26 kDa fraction, respectively; endogenous in cells; host or cells: human T-lymphocytes stimulated with anti-CD3 antibody and crosslinked sFasL
T1 sequence (Q14790 whole entry): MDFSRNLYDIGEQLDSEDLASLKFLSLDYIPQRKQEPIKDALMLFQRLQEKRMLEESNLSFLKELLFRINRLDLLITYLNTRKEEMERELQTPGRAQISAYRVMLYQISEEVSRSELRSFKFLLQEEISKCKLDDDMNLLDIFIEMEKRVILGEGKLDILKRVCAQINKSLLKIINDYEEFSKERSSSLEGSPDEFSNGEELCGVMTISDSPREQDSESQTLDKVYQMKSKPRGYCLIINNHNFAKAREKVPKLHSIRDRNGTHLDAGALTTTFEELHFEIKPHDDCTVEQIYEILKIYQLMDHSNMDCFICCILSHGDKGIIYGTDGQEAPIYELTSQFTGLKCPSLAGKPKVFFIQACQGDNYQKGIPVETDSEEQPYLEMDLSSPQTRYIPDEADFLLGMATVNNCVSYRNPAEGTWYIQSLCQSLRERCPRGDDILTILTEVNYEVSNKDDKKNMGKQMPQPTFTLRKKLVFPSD
Method: FIG. 6 provides a Western blot. Human T-cells were cultivated either without stimulation (control), with soluble anti-CD3 antibody alone (3 μg/ml), or with anti-CD3 antibody and sFasL (50 ng/ml) which, as described above, is crosslinked via its FLAG sequence. The cell lysates were examined in accordance with the times shown in FIG. 6, with regard to the expression of procaspase-8 or of cleavage products of the procaspase-8.
In a further experimental approach, T-cells were stimulated with a combination of anti-CD3 antibodies and FasL for a period of 6 hours, namely in the presence of 50 µM of the caspase-8 inhibitor IETD-fmk.
After 0, 2, 4, 6 and 22 hours, cells were taken from the different preparations and lysated. The cell lysates were examined with the Western blot technique with respect to their caspase-8 activity (procaspase-8, 55 kDa fraction, or proteolytically cleaved, active caspase-8, 26 kDa fraction, respectively).

[2] = tested on: human peripheral blood lymphocytes; test: Proliferation of human PBL/T-cells stimulated with anti-CD3 antibodies, [3H] thymidine incorporation; conditions: for inhibition of the stimulation (cell proliferation) brought about by the anti-CD3: human PBL, inhibitor 25 to 100 μM, four-day cultivation; for inhibition of the stimulation (cell proliferation) brought about by the anti-CD3 / effect on cell proliferation (cpm, [3H] thymidine incorporation): FIG. 1; for effect on cell proliferation (cpm, [3H] thymidine incorporation): human T-cells, 10 μg/ml soluble anti-CD3 antibodies, inhibitor concentrations above 25 μM
Method: For this purpose the T-cells were stimulated with 10 μg/ml soluble anti-CD3 antibodies in the presence of various caspase inhibitors. […] Plotted, the proliferation of the stimulated T-cells (cpm, measured by [^3H] thymidine incorporation) is found as a function of increasing concentrations of caspase inhibitors.
This means that the activity of caspase-8 is significant for the IL-2 production of T-cells. In the experiments on which FIG. 5 is based, PBL were activated with 10 μg/ml soluble anti-CD3 antibody in the presence or absence of zVAD-fink (50 μM) and in the presence of anti-CD3 antibody zVAD-fmk and 500 U/ml recombinant human IL-2, respectively.
For this purpose, the latter were prepared through Ficoll-Hypaque centrifugation. The cells (5×10^4 cells per well) were then cultivated on 96-well plates in the presence of different caspase inhibitors or, for control purposes, in their absence. The concentration of the caspase inhibitors was varied in a range of 25 to 100 μM. Finally, the cells were stimulated through anti-CD3 antibodies (TR66) or through a combined stimulation with anti-CD3 antibodies and soluble recombinant FasL with or without anti-FLAG sequence antibodies 1 μg/ml.
Cell proliferation was measured during the last 18 hours of the four-day cultivation period. The measuring variable for cell proliferation was the incorporation of [^3H] thymidine into the proliferating cells.

[3] = tested on: IL-2 production of T-lymphocytes; test: IL-2 concentration in supernatants of stimulated T-lymphocytes/PBL, CTLL bioassay; conditions: FIG. 4; for suppression of IL-2 production: anti-CD3 antibody stimulation (3 μg/ml immobilized), inhibitors 50 µM, supernatants after 24 hours; for IL-2 activity in supernatants / T-cell proliferation as reflected by IL-2 concentration in supernatants: immobilized anti-CD3 antibody (3 μg/ml) with or without crosslinked FasL (50 ng/ml)
Method: FIG. 4 illustrates the correlation of IL-2 expression and the use of caspase inhibitors using a bar diagram. […] The findings shown in FIG. 4 are based on experiments in which 106 ^6 PBL/ml were cultivated with immobilized anti-CD3 antibody (3 μg/ml) and FasL ([…]) in the presence or absence of the caspase inhibitors referred to above (50 µM). The supernatants were removed after 24 hours and examined with the help of a CTLL bioassay for their IL-2 concentration.
For this purpose, T-lymphocytes (10^6/ml) were stimulated with immobilized antiCD3 antibody (3 μg/ml) with or without crosslinked FasL (50 ng/ml). The supernatants of these preparations with a caspase inhibitor or without a caspase inhibitor as control were removed after the stimulation period and their respective IL-2 concentration was measured using a CTTL bioassay. The IL-2 concentration in the supernatants reflects the T-cell proliferation.

Substance	active 26 kDa caspase-8 fraction/band in Western blot [1]	proteolytic cleavage of caspase-8 during stimulation [1]	inhibition of the stimulation (cell proliferation) brought about by the anti-CD3 [2]	effect on cell proliferation (cpm, [3H] thymidine incorporation) [2]	suppression of IL-2 production [3]	IL-2 activity in supernatants [3]	T-cell proliferation as reflected by IL-2 concentration in supernatants [3]	cell proliferation with inhibitor plus exogenous recombinant human IL-2 ([2]; PBL, 10 μg/ml soluble anti-CD3 antibody, zVAD-fmk 50 μM and 500 U/ml IL-2, FIG. 5)	number of cells as against the control ([2]; PBL, 10 μg/ml soluble anti-CD3 antibody, zVAD-fmk 50 μM, FIG. 5)
IETD-fmk	cannot be detected; also recorded: does not lead to any 26 kDa band being detected	effectively blocked	complete inhibition	clear inhibiting effect	particularly effective	only weak	blocks		
zVAD-fmk			complete inhibition; also recorded: partial inhibition	clear inhibiting effect	particularly effective	only weak	blocks	increases dramatically	clear reduction

From US20020086832A1, “Caspase inhibitors for inhibiting blood cell proliferation and for treating autoimmune diseases” (APOTECH RESEARCH AND DEVELOPMENT LTD., priority 1999, published 2002)
